Results taken from patent US20080120731A1, “Transgenic Animal Models for Neurodevelopmental Disorders” (priority 2004, published 2008).
Where two headings read alike, the source gives them in different places.

What was measured:
[1] = tested on: APH1BC^−/− mice; test: Prepulse inhibition (PPI) of acoustic startle after antipsychotic injection; format: in vivo
Description: Schizophrenia is a complex disease characterized by delusions and hallucinations (so-called positive symptoms), affective and social disturbances (negative symptoms), but also by cognitive deficits. Disturbed information processing, and more specifically an impairment in the filtering of irrelevant stimuli, is thought to contribute to the disease phenotype by causing “sensory flooding”, which may lead to cognitive fragmentation. A psychophysical measure of (pre-attentive) information filtering is “prepulse inhibition” (PPI). […] The strength of this reflex response is read out by recording the amplitude of the eye-blink response that is part of the startling reaction. This way, the amplitude of the eye-blink response is a measure of the efficiency of the coupling of the sensory stimulus to the motor reflex programme. If the startle stimulus is preceded by a weak, non-startling “prepulse stimulus”, e.g. a tone just above background noise levels, the amplitude of the eye-blink response to the startle stimulus is strongly diminished in normal individuals. […] The “% prepulse inhibition (PPI)” is quantified as: 100−((A2/A1)*100), with A1 being the amplitude of the response to the startle stimulus and A2 the amplitude of the response to the same startle stimulus preceded by the prepulse stimulus. […] In rodents the motor reaction to a startle stimulus is quantified by placing mice into a restraining tube in a sound-proof cabin mounted onto a pressure sensitive platform. Upon presentation of the startling sound, the mouse flinches and the pressure it exerts via its limbs is recorded quantitatively as a ballistogram that can be analysed using appropriate software. This way, the effect of a preceding prepulse on the flinching reaction to a startle stimulus can be calculated.
For all trials, background noise was 70 db, the prepulse preceded the startle stimulus by 100 ms, the prepulse stimuli lasted 20 ms and the startle stimuli lasted 60 ms. […] For each of the four different combinations of prepulse and startle stimulus, the % PPI was calculated using the formula described above. […]

[2] = tested on: APH1BC ^−/− mice; test: Open field locomotor activity (total distance traveled) after apomorphine; conditions: 2 μg/kg subcutaneously; for activity at 0.002 mg/kg: Mus musculus, sc, 10 min
[3] = tested on: APH1BC ^−/− mice; test: Locomotor activity (infrared beam breaks in activity monitor) after amphetamine; conditions: 3 μg/kg intraparietally

O=C(CCCN1CCC(O)(c2ccc(Cl)cc2)CC1)c1ccc(F)cc1 [haloperidol, Haloperidol]
PPI in APH1BC^−/− mice relative to wild type levels ([1]; APH1BC^−/− mice, pp 74/p110 and pp 78/p110 trials, 1 μg/kg injected intra-parietally, PPI measured 45 min after injection): essentially normalized
effects on (improvements of) PPI in the p100 trials ([1]; p100 trials, 1 μg/kg intra-parietally, 45 min after injection): small but insignificant effects
wild type PPI levels compared to placebo-injected animals ([1]; wild type littermates, pp74/p110 and pp 78/p110 trials, 1 μg/kg intra-parietally, 45 min after injection): significantly elevated

CN1CCc2cccc3c2[C@H]1Cc1ccc(O)c(O)c1-3 [apomorphine]
reaction of APH1BC ^−/− mice versus wild-type littermates ([2]; p=0,045 two-tailed student's t test): reacted more strongly
activity at 0.002 mg/kg ([2]; read-out: residual activity (distance APO/distance placebo)*100%, APH1BC −/− mice, 10 min open field): 27%
activity at 0.002 mg/kg ([2]; read-out: residual activity (distance APO/distance placebo)*100%, wild type mice, 10 min open field): 50%
effect on locomotion (total distance traveled in open field) ([2]; […], 10 min open field, p<0,001 for treatment effect): strong inhibition of locomotion

CC(N)Cc1ccccc1 (stereo not shown) [amphetamine, Amphetamine]
reaction of APH1BC ^−/− mice versus wild-type littermates (rise in activity, maximal activity, total activity over two hours) ([3]; p=0,06 for genotype effect): reacted more strongly
time of peak locomotor activity after injection ([3]; […]): 35 to 40 min
locomotor activity after drug administration ([3]; […], monitored 2 h after injection): rose strongly and continuously
